In article PMC11219871, “Epigenetic-based differentiation therapy for Acute Myeloid Leukemia” (Nature Communications, 2024):
Where “and” joins values, the source holds several entries; their conditions need not be identical. Equal values may be shown once. Read-outs that look alike come from different tables or passages of the source.

Legend:
HL-60 = assay: Differentiation-apoptosis assay, CD11b / annexin-V / Sytox Green / myeloid markers flow cytometry; format: cell-based, human; parameters: Cell viability (%): concentration or dose not given beside the values; CD11b levels: unit not given here; conditions: for Annexin V (%) Replicate 1 / Annexin V (%) Replicate 2 / Annexin V (%) Replicate 3 / CD11b (%) Replicate 1 / CD11b (%) Replicate 2 / CD11b (%) Replicate 3: HL-60, daily 25% GI50, 48 h; for percentage of CD11b: HL-60, 270 nM CM-444 or 300 nM CM-1758 daily for 4 days, before injection; for differentiation level (CD11b): HL-60, after 6–8 days of treatment; for CD11b levels: HL-60 treated daily for 48 h, replicates (Fig 6D)
In short: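 HL-60 cells were stained for the myeloid differentiation marker CD11b, with annexin-V and Sytox Green marking apoptosis and cell death. Cells were washed in PBS and resuspended at 1 × 10^6 cells/mL in binding buffer; marker staining of 1 million cells was for 30 min at room temperature in the dark, followed by red-cell lysis. Readout was flow cytometry.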

HDAC1 = HDAC1 (Homo sapiens, UniProt Q13547); assay: HDAC enzymatic assay, fluorescence-labeled substrate; format: biochemical; conditions: for inhibition at 10 µM: source data of Fig. 1B
Sequence of HDAC1 (Q13547 whole entry): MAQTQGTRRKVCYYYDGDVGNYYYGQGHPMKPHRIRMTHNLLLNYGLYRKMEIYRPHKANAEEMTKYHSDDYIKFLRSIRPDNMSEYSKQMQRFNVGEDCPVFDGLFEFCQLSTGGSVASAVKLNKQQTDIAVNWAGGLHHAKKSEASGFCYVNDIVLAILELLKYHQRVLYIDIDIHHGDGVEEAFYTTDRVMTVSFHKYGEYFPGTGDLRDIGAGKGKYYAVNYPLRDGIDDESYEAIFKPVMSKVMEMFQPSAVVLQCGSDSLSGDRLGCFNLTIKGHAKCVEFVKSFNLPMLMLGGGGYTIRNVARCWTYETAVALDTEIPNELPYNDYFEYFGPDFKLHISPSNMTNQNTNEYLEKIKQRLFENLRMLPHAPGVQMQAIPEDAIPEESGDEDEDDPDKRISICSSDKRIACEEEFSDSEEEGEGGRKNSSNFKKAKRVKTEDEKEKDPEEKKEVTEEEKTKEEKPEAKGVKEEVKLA

HDAC4 = molecular target: T1, HDAC4 (Homo sapiens, UniProt P56524); assay: HDAC assay (Eurofins); format: biochemical
T1 construct: purchased Eurofins (contracted assay service)
T1 sequence (P56524 whole entry): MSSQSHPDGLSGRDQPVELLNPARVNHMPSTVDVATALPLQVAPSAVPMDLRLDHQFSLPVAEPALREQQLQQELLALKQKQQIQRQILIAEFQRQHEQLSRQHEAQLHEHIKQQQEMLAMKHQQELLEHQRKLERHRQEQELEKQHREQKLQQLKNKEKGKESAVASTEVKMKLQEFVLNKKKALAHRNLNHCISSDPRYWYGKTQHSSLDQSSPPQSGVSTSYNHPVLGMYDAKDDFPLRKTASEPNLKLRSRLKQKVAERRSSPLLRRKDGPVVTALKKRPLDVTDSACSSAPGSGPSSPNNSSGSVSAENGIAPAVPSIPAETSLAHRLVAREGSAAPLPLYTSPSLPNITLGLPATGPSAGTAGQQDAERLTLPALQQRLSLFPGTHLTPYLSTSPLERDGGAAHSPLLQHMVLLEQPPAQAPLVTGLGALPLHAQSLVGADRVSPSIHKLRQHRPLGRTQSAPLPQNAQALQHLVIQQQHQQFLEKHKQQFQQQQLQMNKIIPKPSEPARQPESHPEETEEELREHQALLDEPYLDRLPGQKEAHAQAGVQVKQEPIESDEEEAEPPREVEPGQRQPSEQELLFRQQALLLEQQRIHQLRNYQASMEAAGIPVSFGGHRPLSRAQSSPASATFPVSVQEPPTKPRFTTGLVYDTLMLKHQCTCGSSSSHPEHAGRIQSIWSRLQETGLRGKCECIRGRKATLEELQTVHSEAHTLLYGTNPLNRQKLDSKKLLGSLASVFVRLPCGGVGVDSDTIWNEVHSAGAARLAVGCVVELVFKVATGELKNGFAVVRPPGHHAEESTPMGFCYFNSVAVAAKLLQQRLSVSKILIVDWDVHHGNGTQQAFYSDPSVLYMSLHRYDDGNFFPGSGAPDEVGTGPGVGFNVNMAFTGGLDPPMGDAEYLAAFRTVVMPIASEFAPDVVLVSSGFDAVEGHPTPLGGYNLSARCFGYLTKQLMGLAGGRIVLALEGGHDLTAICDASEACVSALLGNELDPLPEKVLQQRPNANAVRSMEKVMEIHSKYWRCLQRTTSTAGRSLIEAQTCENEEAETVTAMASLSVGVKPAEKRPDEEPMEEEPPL

HDAC6 = molecular target: T2, HDAC6 (Homo sapiens, UniProt Q9UBN7); assay: HDAC enzymatic assay, fluorescence-labeled substrate; format: biochemical; conditions: for inhibition at 10 µM: source data of Fig. 1B; for IC50: read-out: IC50
T2 sequence (Q9UBN7 1-1215): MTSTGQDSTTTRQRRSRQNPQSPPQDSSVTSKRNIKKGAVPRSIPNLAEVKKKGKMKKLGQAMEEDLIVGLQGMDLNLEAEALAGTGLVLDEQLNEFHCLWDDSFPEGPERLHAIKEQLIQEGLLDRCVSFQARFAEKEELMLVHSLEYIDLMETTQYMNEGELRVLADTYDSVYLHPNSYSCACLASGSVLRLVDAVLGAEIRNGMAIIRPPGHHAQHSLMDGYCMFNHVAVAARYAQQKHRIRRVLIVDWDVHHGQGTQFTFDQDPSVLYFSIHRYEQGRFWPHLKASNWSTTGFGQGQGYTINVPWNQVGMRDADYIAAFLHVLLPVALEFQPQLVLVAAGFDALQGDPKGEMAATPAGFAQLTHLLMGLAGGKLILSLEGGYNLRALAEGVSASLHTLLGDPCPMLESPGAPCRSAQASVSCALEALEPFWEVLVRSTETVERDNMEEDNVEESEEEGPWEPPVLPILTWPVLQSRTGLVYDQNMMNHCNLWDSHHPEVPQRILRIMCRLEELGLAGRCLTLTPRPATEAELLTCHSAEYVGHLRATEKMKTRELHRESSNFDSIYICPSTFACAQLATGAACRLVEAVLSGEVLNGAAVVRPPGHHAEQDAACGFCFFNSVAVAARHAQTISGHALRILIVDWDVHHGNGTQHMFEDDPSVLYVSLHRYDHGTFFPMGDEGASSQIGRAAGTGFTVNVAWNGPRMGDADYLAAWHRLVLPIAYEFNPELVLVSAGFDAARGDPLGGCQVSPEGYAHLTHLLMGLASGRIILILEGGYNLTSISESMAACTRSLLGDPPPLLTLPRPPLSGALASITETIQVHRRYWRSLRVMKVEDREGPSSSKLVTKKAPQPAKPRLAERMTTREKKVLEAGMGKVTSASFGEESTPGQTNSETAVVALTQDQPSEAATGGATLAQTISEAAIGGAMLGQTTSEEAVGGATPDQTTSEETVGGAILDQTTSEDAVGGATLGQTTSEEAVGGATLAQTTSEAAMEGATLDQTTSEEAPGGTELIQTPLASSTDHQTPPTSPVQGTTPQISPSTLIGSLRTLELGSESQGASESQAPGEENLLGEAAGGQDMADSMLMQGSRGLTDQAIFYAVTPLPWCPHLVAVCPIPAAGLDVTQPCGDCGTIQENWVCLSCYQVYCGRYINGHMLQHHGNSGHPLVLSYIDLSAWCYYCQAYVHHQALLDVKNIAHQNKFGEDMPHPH

HDAC11 [1] = molecular target: T3, HDAC11 (Homo sapiens, UniProt Q96DB2); assay: Continuous and direct activity assay for HDAC11; format: biochemical; conditions: for inhibition at 10 µM: source data of Fig. 1B; for IC50: Continuous Activity Assay for HDAC11
T3 sequence (Q96DB2 1-347): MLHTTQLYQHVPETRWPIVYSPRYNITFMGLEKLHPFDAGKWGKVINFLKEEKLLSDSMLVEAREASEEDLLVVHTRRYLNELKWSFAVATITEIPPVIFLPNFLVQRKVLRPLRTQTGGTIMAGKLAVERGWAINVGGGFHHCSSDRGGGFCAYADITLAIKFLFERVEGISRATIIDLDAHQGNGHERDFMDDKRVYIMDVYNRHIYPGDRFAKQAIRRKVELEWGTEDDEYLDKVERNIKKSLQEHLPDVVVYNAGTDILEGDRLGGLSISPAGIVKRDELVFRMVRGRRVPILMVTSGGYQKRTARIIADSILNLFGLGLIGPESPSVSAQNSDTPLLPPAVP

HDAC11 [2] = molecular target: T3, HDAC11; assay: HDAC11 Eurofins assay; format: biochemical
Cytotoxicity (LC50) = format: cell-based; conditions: human, THLE-2 cells (immortalized liver cell line, ATCC CRL-2706)
[3] = HL-60 cell line, replicates 1-3 (Figure 2A)
[4] = HL-60, 48 h treatment, replicates 1-3 (Suppl. Fig. 5A)
[5] = HL-60, daily treatment, time 0 days, replicates 1-3 (Figure 2B)
[6] = HL-60, daily treatment, time 2 days, replicates 1-3 (Figure 2B)
[7] = HL-60, daily treatment, time 4 days, replicates 1-3 (Figure 2B)
[8] = HL-60, daily treatment, time 6 days, replicates 1-3 (Figure 2B)
[9] = HL-60, daily treatment, time 8 days, replicates 1-3 (Figure 2B)

SMILES | Annexin V (%) Replicate 1 (HL-60) [%] | Annexin V (%) Replicate 2 (HL-60) [%] | Annexin V (%) Replicate 3 (HL-60) [%] | CD11b (%) Replicate 1 (HL-60) [%] | CD11b (%) Replicate 2 (HL-60) [%] | CD11b (%) Replicate 3 (HL-60) [%] | CD11b (%) (HL-60; [3]) | inhibition at 10 µM (HDAC1) [%] | IC50 (HDAC1; read-out: IC50) [nM] | IC50 (HDAC4) [nM] | inhibition at 10 µM (HDAC4) [%] | inhibition at 10 µM (HDAC6) [%] | IC50 (HDAC6) [nM] | inhibition at 10 µM (HDAC11 [1]) [%] | IC50 (HDAC11 [1]) [nM] | IC50 (HDAC11 [2]) [nM] | percentage of CD11b (HL-60) [%] | CD11b (%) (HL-60; HL-60, 48 h) | CD11b (%) (HL-60; [4]) | Cell viability (%) (HL-60; [4]) | other results
CC1=C(/C=C/C(C)=C/C=C/C(C)=C/C(=O)O)C(C)(C)CCC1 [ATRA, all-trans retinoic acid, reference compound] | 0.34 | 0.98 | 0.97 | 10.12 | 15.48 | 12.56 | 10.3% and 15.8% and 12.06% |  |  |  |  |  |  |  |  |  |  |  |  |  | 
COc1cc2nc(-c3ccc(C)o3)cc(NCC3CCN(c4ncc(C(=O)NO)cn4)CC3)c2cc1OC [CM-444, 2-[4-[[[6,7-dimethoxy-2-(5-methyl-2-furyl)-4-quinolyl]amino]methyl]-1-piperidyl]pyrimidine-5-carbohydroxamic acid] | 0.75 | 0.49 | 0.44 | 86.24 | 75.15 | 76.65 | 88.3% and 85.7% and 88.0% | 90 | 6.55 | 62 | 96 | 90 | 531 | 90 | 568 | 140 | > 90 | 74.3 | 71.2% and 75.4% and 68.7% | 78.5% and 72.1% and 82.5% | CD13 (%) (HL-60; HL-60, 48 h): 100%; CD14 (%) (HL-60; HL-60, 48 h): 21.5%; HLA-DR (%) (HL-60; HL-60, 48 h): 9.16%; differentiation level (CD11b) (HL-60): ~90%; Annexin-V (%) (HL-60; [5]): 0% and 4.96% and 3.21%; CD11b (%) (HL-60; [5]): 13.33% and 12.5% and 10.8%; Annexin-V (%) (HL-60; [6]): 6.83% and 2.49% and 5.41%; CD11b (%) (HL-60; [6]): 79.45% and 76.2% and 73.9%; Annexin-V (%) (HL-60; [7]): 0% and 2.98% and 3.14%; CD11b (%) (HL-60; [7]): 95.2% and 93.5% and 90.4%; Annexin-V (%) (HL-60; [8]): 9.4% and 2.53% and 5.87%; CD11b (%) (HL-60; [8]): 93% and 97.3% and 95.8%; Annexin-V (%) (HL-60; [9]): 0% and 4.09% and 6.81%; CD11b (%) (HL-60; [9]): 98.61% and 98.5% and 97.1%; CD11b levels (HL-60): 76.5 and 85.9 and 92.1; CC50 (Cytotoxicity (LC50)): 794 nM
COc1cc2nc(-c3cc(C)oc3C)cc(NCC3CCN(c4ncc(C(=O)NO)cn4)CC3)c2cc1OC [CM-1758, 2-[4-[[[2-(2,5-dimethyl-3-furyl)-6,7-dimethoxy-4-quinolyl]amino]methyl] -1-piperidyl]pyrimidine-5-carbohydroxamic acid] | 0.26 | 0.17 | 0.14 | 55.36 | 68.41 | 67.15 | 81.73% and 89.6% and 92.1% | 90 | 4.3 | 130 | 97 | 90 | 257 | 90 | 600 | 150 | > 90 | 71.2 | 65.4% and 71.1% and 68.4% | 82.8% and 73.6% and 69.5% | IC50 (HDAC1; read-out: HDAC1 IC50): 4.32 nM; CD13 (%) (HL-60; HL-60, 48 h): 100%; CD14 (%) (HL-60; HL-60, 48 h): 18.9%; HLA-DR (%) (HL-60; HL-60, 48 h): 12.2%; differentiation level (CD11b) (HL-60): ~90%; Annexin-V (%) (HL-60; [5]): 0% and 4.96% and 3.21%; CD11b (%) (HL-60; [5]): 13.33% and 12.5% and 10.8%; Annexin-V (%) (HL-60; [6]): 5.66% and 3.51% and 4.98%; CD11b (%) (HL-60; [6]): 74.44% and 64.2% and 68.7%; Annexin-V (%) (HL-60; [7]): 0% and 4.07% and 5.87%; CD11b (%) (HL-60; [7]): 86.57% and 79.2% and 77.3%; Annexin-V (%) (HL-60; [8]): 5.76% and 2.68% and 3.98%; CD11b (%) (HL-60; [8]): 94.42% and 89.2% and 90.5%; Annexin-V (%) (HL-60; [9]): 0% and 5.21% and 6.98%; CD11b (%) (HL-60; [9]): 96% and 92.9% and 94.7%; CD11b levels (HL-60): 61.2 and 70.4 and 75.9; CC50 (Cytotoxicity (LC50)): 779 nM
Cc1[nH]c2ccccc2c1CCNCc1ccc(/C=C/C(=O)NO)cc1 [Panobinostat, reference compound] | 20.30 | 24.90 | 22.00 | 12.07 | 18.60 | 12.38 |  |  |  |  |  |  |  |  |  |  |  |  | 10.8% and 18.5% | 45.2% and 38.6% and 44.9% | 
O=C(CCCCCCC(=O)Nc1ccccc1)NO [Vorinostat, reference compound] |  |  |  |  |  |  |  |  |  |  |  |  |  |  |  |  |  |  | 30.8% and 39.8% and 27.7% | 74.2% and 83.6% and 75% | 
